According to patent US9593149B2, “Amylin and calcitonin receptor agonist” (Novo Nordisk A/S, priority 2014, dated 2017):
pEC50, pIC50: −log10 of the molar value. Numbered stars: 1 amine (or outer) side, 2 acyl side, 3 side chain; on linkers, the order of the positions; unused ones are H or OH. Peptide text beside a SMILES is read from it. * marks the point of attachment. C18 diacid = O=C(O)CCCCCCCCCCCCCCCCC(=O)*; γGlu = O=C(O)[C@H](CCC(=O)[*:2])N[*:1]

Key:
[1] = target: T1, human amylin 3(a) receptor (human calcitonin receptor + RAMP-3), BHK570 cells (Homo sapiens, UniProt O60896+P30988); assay: Assay (II)a functional CRE-luciferase assay with albumin, human amylin receptor; format: cell-based; conditions: Tested with HSA; read-out: hAmylin-R funct. EC50
T1 construct: host or cells: BHK570
T1 sequence (O60896 24-148, one chain of several): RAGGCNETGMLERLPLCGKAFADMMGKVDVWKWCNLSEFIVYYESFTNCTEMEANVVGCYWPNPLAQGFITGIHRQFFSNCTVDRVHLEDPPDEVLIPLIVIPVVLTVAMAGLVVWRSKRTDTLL
Source text: Assay(II)a—Human Calcitonin and Amylin Receptor Assay
1. Luciferase Assay Outline
Activation of calcitonin and amylin (co-expression of calcitonin receptor and receptor activity modifying proteins (RAMP)) receptors lead to increased intracellular concentrations of cAMP. Consequently, transcription is activated by promoters containing multiple copies of the cAMP response element (CRE). It is thus possible to measure amylin activity by the use of a CRE luciferase reporter gene introduced into BHK cells also expressing calcitonin or amylin receptors.
2. Construction of Calcitonin (a)—and Amylin 3(a)—Receptor/CRE-Luc Cell Line.
A BHK570 cell line was stably transfected with the human calcitonin receptor and a CRE-responsive luciferase reporter gene. The cell line was further transfected with RAMP-3, using standard methods. This turns the calcitonin receptor into an amylin 3(a) receptor. Methotrexate, Neomycin, and Hygromycin are selection markers for luciferase, the calcitonin receptor, and RAMP-3, respectively.
To perform activity assays, BHK calcitonin (a) receptor- or amylin 3(a)-receptor/CRE-luc cells were seeded in white 96 well culture plates at a density of about 20.000 cells/well. […] After incubation overnight at 37° C. and 5% CO2, the growth medium was replaced by 50 μl/well assay medium (DMEM (without phenol red), Glutamax™, 10% FBS, and 10 mM Hepes, pH 7.4). Further, 50 μl/well of standard or sample in assay buffer were added.
After 3 hours incubation at 37° C. and 5% CO2, the assay medium with standard or sample were removed and replaced by 100 μl/well PBS. Further, 100 μl/well LucLite™ was added. The plates were sealed and incubated at room temperature for 30 minutes. Finally, luminescence was tested on a TopCounter (Packard) in SPC (single photon counting) mode.

[2] = Assay (IV) determination of solubility; format: physicochemical
Description: Assay (IV)—Determination of Solubility
The mimylin peptide was dissolved in water at ˜500 nmol/ml and mixed 1:1 with a series of buffers (100 mM glycylglycine pH 3.0, 100 mM glycylglycine pH 4.0, 100 mM glycylglycine pH 5.0, 100 mM bistrispropane pH 6.0, 100 mM bistrispropane pH 6.5, 100 mM bistrispropane pH 7.0, 100 mM bistrispropane pH 7.5, 100 mM bistrispropane pH 8.0).

[3] = target: T2, human amylin receptor (human calcitonin receptor + human RAMP3), BHK tk'ts 13 cells (Homo sapiens, UniProt O60896+P30988); assay: Assay (Va) binding to the human amylin receptor (whole cell); conditions: read-out: hAmylin-R binding IC50
T2 construct: expressed in transfected cells; host or cells: BHK tk'ts 13
T2 sequence (O60896 24-148, one chain of several): as above
Description: The day before the assay the cells were Seeded into Poly-D-Lysin coated 384W Opaque White, BD BioCoat plates (10000 cells/well) and Incubated overnight at 37° C., 5% CO2, 95% humidity.

[4] = target: T3, human calcitonin (a) receptor, BHK570 cells (Homo sapiens, UniProt P30988); assay: Assay (II)b functional CRE-luciferase assay without albumin, human calcitonin receptor; format: cell-based; conditions: Tested without HSA; read-out: hCTR funct. EC50
T3 construct: host or cells: BHK570
T3 sequence (P30988 25-474): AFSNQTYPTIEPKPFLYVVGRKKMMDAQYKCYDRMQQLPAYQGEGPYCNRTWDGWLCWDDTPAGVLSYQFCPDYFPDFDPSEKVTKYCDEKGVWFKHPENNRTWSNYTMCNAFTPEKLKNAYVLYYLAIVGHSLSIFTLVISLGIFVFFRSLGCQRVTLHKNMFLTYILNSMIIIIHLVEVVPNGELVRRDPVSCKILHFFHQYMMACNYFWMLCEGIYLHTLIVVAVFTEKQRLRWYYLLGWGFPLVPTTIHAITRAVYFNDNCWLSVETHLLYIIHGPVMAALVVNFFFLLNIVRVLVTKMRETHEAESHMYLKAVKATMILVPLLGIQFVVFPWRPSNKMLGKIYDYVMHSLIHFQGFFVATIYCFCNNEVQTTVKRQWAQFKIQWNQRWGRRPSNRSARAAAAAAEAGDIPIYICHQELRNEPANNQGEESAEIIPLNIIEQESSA
Method in brief: (§1)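 BHK570 cells stably expressing human calcitonin receptor with CRE-luciferase reporter, plus RAMP-3 for the amylin 3(a) line. Cells stimulated 3 hours at 37 °C in albumin-free assay medium (0.1% ovalbumin, 10 mM Hepes pH 7.4); cAMP-driven luciferase read by luminescence.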

[5] = target: T1, human amylin 3(a) receptor (human calcitonin receptor + RAMP-3), BHK570 cells; assay: Assay (II)b functional CRE-luciferase assay without albumin, human amylin receptor; format: cell-based; conditions: Tested without HSA; read-out: hAmylin-R funct. EC50
Method in brief: as §1

[6] = target: T3, human calcitonin (a) receptor, BHK570 cells; assay: Assay (II)a functional CRE-luciferase assay with albumin, human calcitonin receptor; format: cell-based; conditions: Tested with HSA; read-out: hCTR funct. EC50
Method in brief: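 BHK570 cells stably carry a CRE-luciferase reporter and the calcitonin receptor; co-transfected RAMP-3 gives the amylin 3(a) receptor line. Cells were treated for 3 h at 37 °C in DMEM with 10% FBS and 10 mM Hepes, pH 7.4. cAMP-driven luciferase was read by LucLite luminescence after 30 min at RT.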

[7] = target: T4, human calcitonin receptor, BHK tk'ts 13 cells (Homo sapiens, UniProt P30988); assay: Assay (VIIa) binding to the human calcitonin receptor (whole cell); conditions: read-out: hCT-R binding IC50
T4 construct: expressed in transfected cells; host or cells: BHK tk'ts 13
T4 sequence (P30988 25-474): T3 sequence (P30988 25-474)
Description: Assay (VIIa)—Determination of Binding to the Human Calcitonin Receptor (Whole Cell Binding)
The binding assay was performed using a BHK tk'ts 13 cell line was stably transfected with the human calcitonin receptor, and a CRE-responsive luciferase reporter gene.
The day before the assay the cells were Seeded into Poly-D-Lysin coated 384W Opaque White, BD BioCoat plates (10000 cells/well) and Incubated overnight at 37° C., 5% CO2, 95% humidity. Then, the cells were washed in HBSS (4° C.), and incubated overnight at 4° C. in a binding buffer containing test compounds, 50 pM [125I]-human calcitonin, media w/o phenol red, 500 ml 0.1% ovalbumin (5 ml 10% ovalbumin) 10 mM Hepes (5 ml 1M) 1× Glutamin (5 ml 100×) 1% P/S (5 ml 100%) Complete (1 tablet/50 ml) 0.1% Pluronic F68®. The morning after, the plates were washed three times in HBSS (4° C.), and lyzed in Lysis buffer (0.1 M NaOH), 1% SDS. Scintillation cocktail (MicroScint40®) was added and the plates were shaken at 500 rpm for a short period. The plate was incubated at room temperature in the dark for 1 hour and Read on a TopCounter™ (Packard). The IC50 was calculated using (one site binding competition analysis) GraphPad Prism5 as a measure of receptor affinity. Assay (VIII)—Determination of Binding to the Rat Calcitonin Receptor

Compound | pEC50 [1] | solubility at 18 h ([2]; bistrispropane buffer, pH 6.5) | solubility at 18 h ([2]; bistrispropane buffer, pH 7.5) | solubility at 18 h ([2]; bistrispropane buffer, pH 6.0) | solubility at 18 h ([2]; bistrispropane buffer, pH 7.0) | solubility at 18 h ([2]; bistrispropane buffer, pH 8.0) | solubility at 18 h ([2]; glycylglycine buffer, pH 3.0) | solubility at 18 h ([2]; glycylglycine buffer, pH 4.0) | solubility at 18 h ([2]; glycylglycine buffer, pH 5.0) | pIC50 [3] | pEC50 [4] | pEC50 [5] | pEC50 [6] | pIC50 [7]
CC(C)C[C@H](NC(=O)[C@H](CCC(=O)O)NC(=O)[C@H](Cc1c[nH]cn1)NC(=O)[C@H](CC(C)C)NC(=O)[C@H](CCC(=O)O)NC(=O)[C@H](C)NC(=O)[C@H](CO)NC(=O)[C@H](CC(C)C)NC(=O)[C@H](CCCNC(=N)N)NC(=O)CNC(=O)[C@H](CC(C)C)NC(=O)[C@@H](NC(=O)[C@H](C)NC(=O)[C@@H](NC(=O)[C@@H](NC(=O)[C@H](CC(C)C)NC(=O)[C@H](CCC(=O)O)NC(=O)[C@H](CO)NC(=O)[C@H](C)NC(=O)CC[C@H](NC(=O)CCCCCCCCCCCCCCCCC(=O)O)C(=O)O)[C@@H](C)O)[C@@H](C)O)C(C)C)C(=O)N[C@@H](C)C(=O)N[C@H](C(=O)N[C@@H](CC(C)C)C(=O)N1CCC[C@H]1C(=O)N[C@@H](CCCNC(=N)N)C(=O)N[C@H](C(=O)N[C@@H](CCC(=O)O)C(=O)N[C@H](C(=O)NCC(=O)N[C@@H](CO)C(=O)NCC(=O)N[C@@H](CO)C(=O)N1CCC[C@H]1C(N)=O)[C@@H](C)O)[C@@H](C)O)[C@@H](C)O [compound 85, [N-terminal(C18 diacid-gGlu), des1, 6T, 9V, 30S, 31G]mimylin] ({C18 diacid-γGlu}-ASELTTAVLGRLSAELHELATLPRTETGSGSP-NH2) | 10.72 | ≥ 200 µM | ≥ 200 µM | ≥ 200 µM | ≥ 200 µM | ≥ 200 µM | ≥ 200 µM | ≥ 200 µM | ≥ 200 µM | 9.19 | 10.55 | 10.48 | 11.05 | –
CC(C)C[C@H](NC(=O)[C@H](C)NC(=O)[C@H](C)NC(=O)[C@@H](NC(=O)[C@H](CO)NC(=O)[C@H](CC(C)C)NC(=O)[C@H](CCC(=O)O)NC(=O)[C@H](CO)NC(=O)[C@H](C)NC(=O)[C@@H](N)CCC(=O)O)[C@@H](C)O)C(=O)NCC(=O)N[C@@H](CCCNC(=N)N)C(=O)N[C@@H](CC(C)C)C(=O)N[C@@H](CO)C(=O)N[C@@H](C)C(=O)N[C@@H](CCC(=O)O)C(=O)N[C@@H](CC(C)C)C(=O)N[C@@H](Cc1c[nH]cn1)C(=O)N[C@@H](CCC(=O)O)C(=O)N[C@@H](CC(C)C)C(=O)N[C@@H](C)C(=O)N[C@H](C(=O)N[C@@H](CC(C)C)C(=O)N1CCC[C@H]1C(=O)N[C@@H](CCCNC(=N)N)C(=O)N[C@H](C(=O)N[C@@H](CCC(=O)O)C(=O)N[C@H](C(=O)NCC(=O)N[C@@H](CO)C(=O)NCC(=O)N[C@@H](CO)C(=O)N1CCC[C@H]1C(N)=O)[C@@H](C)O)[C@@H](C)O)[C@@H](C)O [22bb, H—EASELSTAALGRLSAELHELATLPRTETGSGSP—NH2] (H-EASELSTAALGRLSAELHELATLPRTETGSGSP-NH2) | – | – | – | – | – | – | – | – | – | 9.33 | 11.70 | – | – | 9.32
